Results as given in PubChem BioAssay (NCI).
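These data come from cells grown in 96-well plates and exposed to compound for 48 hours at five concentrations. TGI denotes the concentration required for complete inhibition of growth.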

Key:
Assay in all cases: inhibition of tumour cell growth, NCI panel, 48 h
[1] = system: 786-0 renal
[2] = system: A498 renal
[3] = system: A549 NSCLC
[4] = system: ACHN renal
[5] = system: BT-549 breast
[6] = system: CAKI-1 renal
[7] = system: CCRF-CEM leukemia
[8] = system: COLO 205 colon
[9] = system: DU-145 prostate
[10] = system: EKVX NSCLC
[11] = system: HCC-2998 colon
[12] = system: HCT-116 colon
[13] = system: HCT-15 colon
[14] = system: HL-60(TB) leukemia
[15] = system: HOP-62 NSCLC
[16] = system: HOP-92 NSCLC
[17] = system: HS 578T breast
[18] = system: HT29 colon
[19] = system: IGROV1 ovarian
[20] = system: K-562 leukemia
[21] = system: KM12 colon
[22] = system: LOX IMVI melanoma
[23] = system: M14 melanoma
[24] = system: MALME-3M melanoma
[25] = system: MCF7 breast
[26] = system: MDA-MB-231 breast
[27] = system: MDA-MB-435
[28] = system: MOLT-4 leukemia
[29] = system: NCI-H226 lung
[30] = system: NCI-H23 lung
[31] = system: NCI-H460 lung
[32] = system: NCI-H522 lung
[33] = system: NCI/ADR-RES ovarian
[34] = system: OVCAR-3 ovarian
[35] = system: OVCAR-4 ovarian
[36] = system: OVCAR-5 ovarian
[37] = system: OVCAR-8 ovarian
[38] = system: PC-3 prostate
[39] = system: RPMI-8226 leukemia
[40] = system: RXF 393 renal
[41] = system: SF-268 CNS
[42] = system: SF-295 CNS
[43] = system: SF-539 CNS
[44] = system: SK-MEL-2 melanoma
[45] = system: SK-MEL-28 melanoma
[46] = system: SK-MEL-5 melanoma
[47] = system: SK-OV-3 ovarian
[48] = system: SN12C renal
[49] = system: SNB-19 CNS
[50] = system: SNB-75 CNS
[51] = system: SR leukemia
[52] = system: SW-620 colon
[53] = system: T-47D breast
[54] = system: TK-10 renal
[55] = system: U251 CNS
[56] = system: UACC-257 melanoma
[57] = system: UACC-62 melanoma
[58] = system: UO-31 renal

## CC(=O)OCC1OC(n2c(-c3cccs3)c3c(c(C#N)c2=S)-c2ccccc2CC3)C(OC(C)=O)C(OC(C)=O)C1OC(C)=O (stereo not drawn)
[1]
  TGI: 58.5 µM
[2]
  TGI: 40.9 µM
[3]
  TGI: > 87.1 µM
[4]
  TGI: > 64 µM
[5]
  TGI: > 55.6 µM
[6]
  TGI: 64.7 µM
[7]
  TGI: > 83.6 µM
[8]
  TGI: 32.9 µM
[9]
  TGI: > 100 µM
[10]
  TGI: 70.9 µM
[11]
  TGI: 33.5 µM
[12]
  TGI: > 50.4 µM
[13]
  TGI: > 56.8 µM
[14]
  TGI: > 28.1 µM
[15]
  TGI: > 65.4 µM
[16]
  TGI: 29.9 µM
[17]
  TGI: 70.3 µM
[18]
  TGI: 27.2 µM
[19]
  TGI: > 75.1 µM
[20]
  TGI: > 100 µM
[21]
  TGI: > 50.2 µM
[22]
  TGI: 22.5 µM
[23]
  TGI: > 50.8 µM
[24]
  TGI: > 51.8 µM
[25]
  TGI: 49.2 µM
[26]
  TGI: 87.9 µM
[27]
  TGI: 9.09 µM
[28]
  TGI: > 37.7 µM
[29]
  TGI: > 56.7 µM
[30]
  TGI: > 56.6 µM
[31]
  TGI: > 45.8 µM
[32]
  TGI: 34 µM
[33]
  TGI: > 70.8 µM
[34]
  TGI: 43.1 µM
[35]
  TGI: > 95.7 µM
[36]
  TGI: > 100 µM
[37]
  TGI: > 46.6 µM
[38]
  TGI: > 65.3 µM
[39]
  TGI: 17 µM
[40]
  TGI: 29.3 µM
[41]
  TGI: > 64.4 µM
[42]
  TGI: > 55.8 µM
[43]
  TGI: > 49.3 µM
[44]
  TGI: 31.5 µM
[45]
  TGI: > 59.2 µM
[46]
  TGI: 23 µM
[47]
  TGI: > 100 µM
[48]
  TGI: > 100 µM
[49]
  TGI: > 100 µM
[50]
  TGI: 26.7 µM
[51]
  TGI: > 29.8 µM
[52]
  TGI: > 63.4 µM
[53]
  TGI: 42.8 µM
[54]
  TGI: > 30.2 µM
[55]
  TGI: > 53.8 µM
[56]
  TGI: > 55.4 µM
[57]
  TGI: 43.1 µM
[58]
  TGI: 20.6 µM
